Results as given in paper PMC11643612, “Insights into the Metabolism, Disposition, and Quantitative Profile of mGlu5 NAM AE90015 with Metabolite Identification and a Novel Integration Method” (Molecules, 2024).

What was measured:
mGlu2 = settings: cited from earlier work
human mGlu5 receptor = system: human mGlu5 receptor; set-up: method as in PMID 34469715; settings: NAM; cited from earlier work
[1] = rat PK, in-house experiment; settings: in vivo
mGlu4 = settings: cited from earlier work
[2] = in vivo rat oral dose study: metabolism, excretion and disposition (plasma, tissues, urine, bile; UV/mass integration)
Protocol: The in vivo rat studies were performed following the administration of a 30 mg/kg dose of AE90015. Plasma, urine, and tissue samples were collected from two rats in a metabolic cage, and bile samples were collected from two bile duct-cannulated rats. The urine and bile samples were collected from 0 to 24 h post-administration. The tissues and plasma samples were collected at 24 h post-administration. This study was carried out to explore all metabolites, particularly the phase II metabolites, and to identify the metabolites being excreted and understand their excretion pathways. Additionally, determining whether AE90015 itself is directly cleared through urine and bile is crucial for explaining its pharmacokinetic clearance value in rats.
For quantification, a photodiode array detector connected to UPLC in parallel to the LTQ-Obitrap mass spectrometer, detecting at 260 nm absorption, and combined with mass response was used to quantitatively measure, sometimes with compromised accuracy, the metabolites and AE90015 in all of the samples. For well-separated metabolites in the liquid chromatogram, their UV 260 nm absorption peak integration represented their molar response. When the metabolites’ UV peaks overlap with each other, UV integration is not feasible, but the integration of extracted metabolite mass is much easier. […] It was assumed that each metabolite’s UV integration-to-mass integration ratio is equal, allowing for a good approximation within the same category of metabolites. This assumption was validated by many of the metabolites measured in this study and previous studies. When no UV integration is available, multiplying the mass integration by the […] yielded in the UV integration.
The distribution of normalized integration values for the parent drug AE90015 and its metabolites in plasma, urine, bile, and tissues, including liver, brain, and kidney, is summarized in Table 1. […] In this experiment, all amounts of AE90015 and its metabolites in the plasma, urine, and bile samples were obtained from UV responses, which were adjusted to their total volume in the rat. For the liver, brain, and kidney tissues, these amounts were normalized to tissue weight. The sample dilution factors used in the analysis were also converted back.
The values in Table 1 represent the relative molar amounts of each metabolite of AE90015 remaining in the plasma and tissues or excreted in urine or bile 24 h post-dose. These values were derived either directly from UV 260 nm integration or from mass response integration, multiplied by the UV/mass ratio for each metabolite category, and further adjusted to plasma, urine volume, or tissue weight. The details of the calculation methods are provided in Section 3.
Two rats weighing 0.266 and 0.252 kg received 30 mg/kg oral doses of AE90015, formulated with hydroxypropyl-beta-cyclodextrin, for the bile collection study, which was carried out for 0–24 h, and a total of 33.6 mL of bile was pooled together from the 2 rats. The two rats used for the bile collection study underwent bile duct cannulation surgery 2 days before the AE90015 dosing and bile collection. Before the surgery, the rats were anesthetized with ketamine (43 mg/kg body weight) and xylazine (8.7 mg/kg body weight). After surgical skin preparation, two catheters (intestinal and biliary) were passed subcutaneously from the dorsal scapular region into the abdomen. Through ventral midline abdominal incision, the bile duct was isolated and ligated, and the biliary catheter was inserted into the bile duct and secured. The intestinal catheter tip was placed into the duodenum just distal to the entry point of the bile duct and secured by the placement of a purse string suture. […]

mGlu1 = settings: cited from earlier work
mGlu3 = settings: cited from earlier work
79 other targets = settings: cited from earlier work
mGlu7 = settings: cited from earlier work
[3] = rats (n = 2), 24 h after 30 mg/kg oral, % of all AE90015-related material

**Q.** For Cc1cncc(C(=O)NC23CC4CC(CC(NC(=O)c5ccccn5)(C4)C2)C3)n1 [AE90015], which “efficacy or affinity for mGlu2” value (mGlu2) is on record?
**A.** The value was “no significant efficacy or affinity”.

**Q.** And the affinity (human mGlu5 receptor)?
**A.** Its affinity is 18.5 nM.

**Q.** And the clearance [1]?
**A.** The clearance was 38 mL/min/kg.

**Q.** And the “efficacy or affinity for mGlu4” value (mGlu4)?
**A.** The value was “no significant efficacy or affinity”.

**Q.** What about the “Excrete from Bile, normalized relative molar amount” value ([2]; bile duct-cannulated rats (n = 2), bile 0-24 h after 30 mg/kg oral, % of all AE90015-related material) of the same compound?
**A.** Its value is 0.39%.

**Q.** What about the “share of total clearance by mono-oxidation (primary clearance pathway)” value ([2]; rat, 30 mg/kg oral, 24 h) of the same compound?
**A.** The value was 96%.

**Q.** And the “direct excretion via renal and bile routes” value ([2]; rat, 30 mg/kg oral, 24 h, unchanged parent)?
**A.** Its value is 0.5%.

**Q.** What about the “Remain in Brain, normalized relative molar amount” value [2, 3] of the same compound?
**A.** The value was 0.66%.

**Q.** What about the “Remain in Kidney, normalized relative molar amount” value [2, 3] of the same compound?
**A.** Its value is 0.16%.

**Q.** What about the “Remain in Liver, normalized relative molar amount” value [2, 3] of the same compound?
**A.** The value was 0.98%.

**Q.** And the “Remain in Plasma, normalized relative molar amount” value [2, 3]?
**A.** Its value is 1.47%.

**Q.** And the “Excrete from Urine, normalized relative molar amount” value ([2]; rats (n = 2), urine 0-24 h after 30 mg/kg oral, % of all AE90015-related material)?
**A.** The value was 0.10%.

**Q.** And the “efficacy or affinity for mGlu1” value (mGlu1)?
**A.** The value was “no significant efficacy or affinity”.

**Q.** What about the “efficacy or affinity for mGlu3” value (mGlu3) of the same compound?
**A.** The value was “no significant efficacy or affinity”.

**Q.** What about the “selectivity for mGlu5, preference compared to the 79 other targets tested” value (79 other targets) of the same compound?
**A.** Its value is “over 1000 fold”.

**Q.** What about the “efficacy or affinity for mGlu7” value (mGlu7) of the same compound?
**A.** Its value is “no significant efficacy or affinity”.
